According to PMC10610214 (Pharmaceuticals, 2023):
Values joined by “and” are separate entries in the source; they are usually repeats but may differ in a detail not shown here. Equal values may be shown once.

Assays:
H2O2-induced PC12 cells = assay: Neuroprotection against H2O2-induced PC12 cell injury (MTT); assay type: cell-based; settings: H2O2 250 μM, mean ± SEM
Procedure: Neuroprotection assay is similar to cytotoxicity. Oxidative cellular damage caused by H2O2 has become one of the important methods to study oxidative damage in neural cells. PC12 cells were seeded into a 96-well plate at a density of 5.0 × 10^3 cells per well. After the cells were incubated overnight, the old medium was discarded. […] After incubating overnight, 20 μL of MTT solution (5 mg/mL, Sigma-Aldrich) was added per well, and the cells were incubated for an additional 4 h. Afterwards, the supernatant was removed and 150 μL of DMSO was added. The 96-well plate was placed on the shaker for 10–15 min, and then the absorbance at 492 nm was measured by a microplate reader.

BV2 cells = assay: LPS-induced ROS production in BV2 cells; assay type: cell-based; settings: 4h 7.5, 15, 30 μM
Procedure: Intracellular ROS levels was detected by the ROS assay kit (Biyuntian Biotechnology, Hang Zhou, China). […] The control group involved culturing the BV2 microglia cells in normal culture media without any treatment. Then, the cells were washed with PBS (pH 7.2) and incubated with DCFH-DA at 37 °C for 20 min. Finally, cells were washed with DMEM and the fluorescence intensity was observed under confocal laser scanning microscope.

DPPH radical scavenging = assay type: physicochemical; settings: vs no-compound group
Procedure: DPPH is a commercially available stable organic nitrogen radical with maximum UV absorption at 515 nm. After reduction, the color of the solution fades (absorbance decreases). Therefore, this method was used to evaluate the antioxidant capacity of the compounds. In short, 50 μL of DPPH (140 μM) and 50 μL of different concentrations (10, 100, and 1000 μM) of compound 4h were added together in a 96-well plate and then incubated in the dark at 37 °C for 2 h. The absorbance was measured at 515 nm through the multifunctional microplate reader. The scavenging rate (SR) of DPPH radicals was calculated by the following formula: SR = (1 − Ac/A0) × 100%, where “Ac” is the absorbance of DPPH and the compound solution incubating, and “A0” is the absorbance of the DPPH radical-ethanol solution alone. The experimental results are expressed as the average of three tests.

in vitro = in vitro ADME, SD rats; settings: pH 7.4
Procedure: The incubation was terminated at different time points by adding 0.5 mL of ice-cold CH3CN. A parallel incubation was performed in the absence of a NADPH-regenerating system with microsomes as the negative control, and the reactions were terminated after the corresponding time incubation. After centrifugation with 12,500 rpm at 4 °C for 10 min, the supernatant was directly analyzed by the HPLC UV systems (Agilent HPLC 1200 instrument). Three independent experiments were performed in triplicate.

HepG2 cells = assay: Hepatotoxicity in HepG2 cells (MTT); assay type: cell-based; settings: 10, 30 and 50 μM
Procedure: The hepatotoxicity of compound 4h in normal AML-12 hepatocytes and HepG2 liver cancer cells was examined by MTT method. AML-12 cells and HepG2 cells were seeded into 96-well plates at a density of 5.0 × 10^3 cells per well, respectively. After the cells were incubated overnight, the old medium was discarded. The cells were incubated for 48 h with fresh medium containing various concentrations of the test compound. After 48 h of incubation, 20 μL of MTT (5 mg/mL) was added to each well and incubate for an additional 4 h. Formazan was dissolved with DMSO (150 μL). […]

Aβ1-42 = Aβ1-42 (Homo sapiens, UniProt P05067); assay: Self-induced Aβ1-42 aggregation, thioflavin T fluorescence; assay type: biochemical; design: final concentrations of 20 μM of Aβ1-42 and 100 μM of test compound; purchased Beyotime Institute of Biotechnology; settings: 100 μM inhibitor; ThT; 48 h; read-out: Inhibition of Self-Induced Aβ Aggregation (%)
Chain of Aβ1-42 (P05067 672-713 limits assumed): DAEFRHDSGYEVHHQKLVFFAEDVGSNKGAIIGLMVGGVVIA
Procedure: The inhibitory effect of compounds on Aβ42 was determined by Thioflavin T (ThT) fluorescence assay. In short, the dilution of Aβ42 solution (Beyotime Biotechnology, Hang Zhou, China) and test compounds was carried out with phosphate buffer (50 mM, pH 7.4) to obtain final concentrations of 20 μM of Aβ1-42 and 100 μM of test compound, such as curcumin (20 μM). The mixture was incubated in 96-well plates at room temperature for 48 h in the dark. When the incubation was complete, the samples were diluted to 200 µL (final volume) with glycine–NaOH buffer (50 mM, pH 8.0) containing 5 μM ThT.

For `O=C1c2cc(NS(=O)(=O)c3ccccc3F)ccc2-n2c1nc1ccccc1c2=O` [4h], the “H2O2-Induced PC12 Cell Viability (% of Control)” value (H2O2-induced PC12 cells; compound 10 μM) was 61.66 ± 1.3 % of Control, the “H2O2-Induced PC12 Cell Viability (% of Control)” value (H2O2-induced PC12 cells; compound 30 μM) was 71.31 ± 1.9 % of Control and the “Intracellular ROS levels in BV2 cells” value (BV2 cells) was “significantly reduced intracellular ROS levels”. The “Concentration of DPPH (%)” value (DPPH radical scavenging; 10 μM compound) was 84.76 ± 4.21% and 84.76%, the “Concentration of DPPH (%)” value (DPPH radical scavenging; 100 μM compound) was 74.6 ± 2.51% and the “Concentration of DPPH (%)” value (DPPH radical scavenging; 1000 μM compound) was 36.51 ± 2.78% and 36.51%. The K (in vitro; SD, rat, 100 μM) was 0.00574 ± 0.00037 min⁻¹, the half-life at 100 μM (in vitro; SD rat liver microsomes) was 1.8 ± 0.0817 h and the “Hepatotoxicity in HepG2 cells” value (HepG2 cells) was “had no toxicity”. For the same compound, the inhibition at 100 µM (Aβ1-42) was 63.2 ± 2.33%.
